Entries after “also recorded” stand apart in the source; their conditions may differ.
How the values were obtained:
[1] = tested on: CD34+ cells from sickle cell anemic patient (SCA); test: Fetal hemoglobin expression in CD34+ cells from sickle cell anemic patient differentiated towards erythrocytes; type: cell-based
Protocol: Namalwa CSN.70 cells were purchased from DSMZ (Brauschweig, Germany). Bone marrow and cord blood CD34^+ cells were purchased Cambrex (Walkersville, Md.) and AllCells (Emeryville, Calif.), respectively. Bone marrow CD34+ cells from Sickle Cell Anemic (SCA) patient were provided by Christopher Morris (Loma Linda University Medical Center, CA).
Namalwa were cultured in RPMI-1640 media (Invitrogen, Carlsbad) supplemented with 10% fetal bovine serum, penicillin (100 u/ml) and streptomycin (100 μg/ml). CD34^+ cells were expanded in serum free conditions in Iscove's DMEM (Invitrogen, Carlsbad, Calif.) supplemented with 20% serum substitute BIT (StemCell Techologies, Vancouver, BC) in the presence of SCF (100 ng/ml), Flt3-L (100 ng/ml) and IL-3 (20 ng/ml) (Biosource International, Camarillo, Calif.). Namalwa cells and CD34+ cells were cultured for 3 and 6 days, respectively. DMSO 0.1%, Comp. 1 or Comp. 2, valproic acid (VPA) or trichostatin A (TSA) at the concentration indicated were added during the 3 or 6 days of culture. […]
(§1) After 6 days of culture, cells were washed with phosphate-buffered saline (PBS), fixed with 2% paraformaldehyde, permeabilized with cytopermeafix (BD-pharmingen), stained with HbF-PE (BD Pharmingen, San Diego, Calif.) and analyzed by flow cytometry (FACSAria, BD pharmingen).

[2] = tested on: CD34+ hematopoietic stem cells from a healthy donor; test: Fetal hemoglobin expression in CD34+ cells from a healthy donor differentiated towards erythrocytes; type: cell-based; conditions: for percentage of HbF expressing cells: compound alone, healthy donor, after 6 days of culture, in a dose dependent manner; for effect of combination with HU on HbF expression: healthy (normal) donor, HU at 10 μM added to the growth cocktail, 6 days, FIG. 15
Protocol: (§2) Namalwa were cultured in RPMI-1640 media (Invitrogen, Carlsbad) supplemented with 10% fetal bovine serum, penicillin (100 u/ml) and streptomycin (100 μg/ml). CD34^+ cells were expanded in serum free conditions in Iscove's DMEM (Invitrogen, Carlsbad, Calif.) supplemented with 20% serum substitute BIT (StemCell Techologies, Vancouver, BC) in the presence of SCF (100 ng/ml), Flt3-L (100 ng/ml) and IL-3 (20 ng/ml) (Biosource International, Camarillo, Calif.). Namalwa cells and CD34+ cells were cultured for 3 and 6 days, respectively. DMSO 0.1%, Comp. 1 or Comp. 2, valproic acid (VPA) or trichostatin A (TSA) at the concentration indicated were added during the 3 or 6 days of culture. BM-CD34+ cells were cultured in Iscove's MDM with BIT 95000 (StemCell technologies) in the presence of growth factors. During the first 6 days CD34^+ cells were expanded with SCF (100 ng/ml), Flt3-L (100 ng/ml), and IL-3 (20 ng/ml) and then differentiated toward the erythroid lineage by culture with SCF (50 ng/ml) and EPO (2U or 4 U/ml) for 6 days. To study the effect of immunomodulatory compounds, CD34^+ progenitor cells were differentiated for a period of 6 days in the presence or absence of Comp. 1, Comp. 2 or hydroxyurea (HU).
as §1

[3] = tested on: Namalwa cells (human Burkitt Lymphoma); test: Namalwa cell apoptosis (Propidium iodide staining, flow cytometry); type: cell-based; conditions: 3 days; for effect of combination with VPA on inducing apoptosis: FIGS. 4 and 6
Protocol: as §2
(§3) Namalwa and CD34^+ cells were plated at 4000 and 2000 cells per well, respectively into 96-well plate and treated with compound. After the time indicated, cells were counted and phenotypically analyzed by flow cytometry using the FACSarray. The percentage of apoptotic cells and CD34^+ cells were monitored using Propidium iodide staining (BD pharmingen, Chicago, Ill.) and the antibody anti-CD34 (PE-conjugated) (BD pharmingen), respectively, according to the manufacturer experimental procedure.

[4] = tested on: Namalwa cells (human Burkitt Lymphoma); test: Namalwa cell proliferation (cell count by flow cytometry; BrDu incorporation); type: cell-based; conditions: 3 days; for effect of combination with VPA on cell proliferation arrest: FIGS. 3 and 5
Protocol: as §2, §3
Namalwa cells were plated at 10,000 cells per well in 96 well plates and treated with TSA and Comp. 1 at the concentration indicated for 3 days. The effects of TSA and Comp. 1 on cell proliferation were measured using BrDu incorporation kit (Roche, Germany).

[5] = tested on: cord blood CD34+ cells; test: Expansion of cord blood-derived CD34+ cells (cell count and anti-CD34 flow cytometry); type: cell-based; conditions: for effects of combination with TSA on CD34+ expansion, CD34+ cell number / effects of combination with TSA on CD34+ expansion, percent of CD34+ cells / effects of combination with VPA on CD34+ expansion, CD34+ cell number / effects of combination with VPA on CD34+ expansion, percent of CD34+ cells / number of CD34+ cells / percent of CD34+ cells: after 6 days of culture; for effects of combination with TSA on CD34+ expansion, CD34+ cell number: FIGS. 7 and 9; for effects of combination with TSA on CD34+ expansion, percent of CD34+ cells: FIGS. 8 and 10; for effects of combination with VPA on CD34+ expansion, CD34+ cell number: FIGS. 11 and 13; for effects of combination with VPA on CD34+ expansion, percent of CD34+ cells: FIGS. 12 and 14; for number of CD34+ cells / percent of CD34+ cells: compound alone, in a dose dependent manner; for kind of combination effect with VPA on CD34+ expansion (number and percent): tables in FIGS. 11-14
Protocol: as §2, §3

[6] = cited from earlier work; for relative stability among polymorphs: Form A: among anhydrous polymorphs, Form E: in aqueous solvent systems; for hygroscopicity: polymorphic form of 3-(4-amino-1-oxo-1,3 dihydro-isoindol-2-yl)-piperidene-2,6-dione; for conversion upon heating (desolvation experiments): Form E: about 125° C. for about five minutes, Form B: 175° C. for about five minutes; for interconversion in solvent systems or at higher relative humidity: interconversion studies

## Nc1cccc2c1C(=O)N(C1CCC(=O)NC1=O)C2=O (stereo not drawn) [Compound 1, 4-(amino)-2-(2,6-dioxo(3-piperidyl))-isoindoline-1,3-dione]
[1]; HU at 10 μM added to the growth cocktail, 6 days, FIG. 16
  effect of combination with HU on HbF expression: significantly improved the effect of Compound 1 on HbF expression in a synergistic manner
[1]; compound alone, after 6 days of culture, in a dose dependent manner
  percentage of HbF expressing cells: increased
[2]
  percentage of HbF expressing cells: increased
  effect of combination with HU on HbF expression: significantly improved the effect of Compound 1 and Compound 2 on HbF expression in a synergistic manner
[3]
  effect of combination with VPA on inducing apoptosis: synergistic and additive; also recorded: additive and synergistic
[3]; TSA at 10 nM, FIG. 2
  effect of combination with TSA on inducing apoptosis: synergistic and additive
[4]
  effect of combination with VPA on cell proliferation arrest: synergistic and additive; also recorded: additive and synergistic
[4]; TSA at 10 nM, FIG. 1
  effect of combination with TSA on cell proliferation arrest: synergistic and additive
[5]; TSA at 10 nM added to the growth cocktail, 6 days
  effect of the addition of TSA on the compound's effect on CD34+ expansion: significantly improved
[5]; VPA at 0.1, 0.3 and 1 mM added to the growth cocktail, 6 days
  effect of the addition of VPA on the compound's effect on CD34+ expansion: significantly improved
[5]
  effects of combination with TSA on CD34+ expansion, CD34+ cell number: additive and synergistic
  effects of combination with TSA on CD34+ expansion, percent of CD34+ cells: additive and synergistic
  effects of combination with VPA on CD34+ expansion, CD34+ cell number: additive and synergistic
  effects of combination with VPA on CD34+ expansion, percent of CD34+ cells: additive and synergistic
  number of CD34+ cells: increased
  percent of CD34+ cells: increased
[5]; tables in FIGS. 7-10, which belong to the TSA experiments, 6 days
  kind of combination effect on CD34+ expansion (number and percent), partner printed as VPA: additive to Compound 1, and in some conditions, a synergistic effect was observed
[5]; 6 days
  kind of combination effect with VPA on CD34+ expansion (number and percent): additive to Compound 1, and in some conditions, a synergistic effect was observed

## Nc1cccc2c1CN(C1CCC(=O)NC1=O)C2=O (stereo not drawn) [Compound 2, 3-(4-amino-1-oxo-1,3-dihydro-isoindol-2-yl)-piperidine-2,6-dione]
[2]
  percentage of HbF expressing cells: increased
  effect of combination with HU on HbF expression: significantly improved the effect of Compound 1 and Compound 2 on HbF expression in a synergistic manner
[3]
  effect of combination with VPA on inducing apoptosis: synergistic and additive; also recorded: additive and synergistic
[4]
  effect of combination with VPA on cell proliferation arrest: synergistic and additive; also recorded: additive and synergistic
[5]; TSA at 1 and 10 nM added to the growth cocktail, 6 days
  effect of the addition of TSA on the compound's effect on CD34+ expansion: significantly improved
[5]; VPA at 0.1 and 0.3 mM added to the growth cocktail, 6 days
  effect of the addition of VPA on the compound's effect on CD34+ expansion: significantly improved
[5]
  effects of combination with TSA on CD34+ expansion, CD34+ cell number: additive and synergistic
  effects of combination with TSA on CD34+ expansion, percent of CD34+ cells: additive and synergistic
  effects of combination with VPA on CD34+ expansion, CD34+ cell number: additive and synergistic
  effects of combination with VPA on CD34+ expansion, percent of CD34+ cells: additive and synergistic
  number of CD34+ cells: increased
  percent of CD34+ cells: increased
[5]; 6 days
  kind of combination effect with VPA on CD34+ expansion (number and percent): additive to Compound 2, and in some conditions, a synergistic effect was observed

## Nc1cccc2c1CN(C1CCC(=O)NC1=O)C2=O (stereo not drawn) [Form A, 3-(4-amino-1-oxo-1,3 dihydro-isoindol-2-yl)-piperidene-2,6-dione]
[6]
  relative stability among polymorphs: most thermodynamically stable anhydrous polymorph
  hygroscopicity: weakly or not hygroscopic

## Nc1cccc2c1CN(C1CCC(=O)NC1=O)C2=O (stereo not drawn) [Form B, 3-(4-amino-1-oxo-1,3 dihydro-isoindol-2-yl)-piperidene-2,6-dione]
[6]
  conversion upon heating (desolvation experiments): can convert to Form F
  interconversion in solvent systems or at higher relative humidity: converts to Form E in aqueous solvent systems, and converts to other forms in acetone and other anhydrous systems

## Nc1cccc2c1CN(C1CCC(=O)NC1=O)C2=O (stereo not drawn) [Form C, 3-(4-amino-1-oxo-1,3 dihydro-isoindol-2-yl)-piperidene-2,6-dione]
[6]
  interconversion in solvent systems or at higher relative humidity: can convert to Form B at higher relative humidities
  hygroscopicity: not hygroscopic below about 85% RH

## Nc1cccc2c1CN(C1CCC(=O)NC1=O)C2=O (stereo not drawn) [Form D, 3-(4-amino-1-oxo-1,3 dihydro-isoindol-2-yl)-piperidene-2,6-dione]
[6]
  interconversion in solvent systems or at higher relative humidity: convert to Form B when stressed at higher relative humidities
  hygroscopicity: either weakly or not hygroscopic

## Nc1cccc2c1CN(C1CCC(=O)NC1=O)C2=O (stereo not drawn) [Form E, 3-(4-amino-1-oxo-1,3 dihydro-isoindol-2-yl)-piperidene-2,6-dione]
[6]
  relative stability among polymorphs: most stable form
  conversion upon heating (desolvation experiments): can convert to Form B
  interconversion in solvent systems or at higher relative humidity: can convert to Form C in an acetone solvent system and to Form G in a THF solvent system

— patent US20080051431A1, “Methods and compositions using immunomodulatory compounds in combination therapy” (priority 2006, published 2008)
